Patent publication US11866458B2, “Panaxadiol glycoside derivative and preparation method and application thereof” (SUZHOU JI ER BIOLOGICAL MEDICINE CO., LTD., priority 2018, dated 2024)

Legend:
[1] = tested on: COPD rats induced by smoke exposure; experiment: COPD induced by smoke exposure in rats: lung function FEV0.2/FVC; assay type: in vivo, Wistar rats; conditions: for FEV2/FVC % (FEV0.2/FVC %, forced expiratory index within 200 ms): 180 days; for effect in COPD rats compared with inhaled budesonide: high dose group, oral
[2] = tested on: inflammatory cells in bronchoalveolar lavage fluid of mice; experiment: Determination of inflammatory cells in bronchoalveolar lavage fluid of mice (OVA asthma model); assay type: in vivo, BALB/C mice; design: unit not given here; conditions: oral
Experimental: 144 6-week-old BALB/C mice (18-20 g) were divided into 24 groups: control group, placebo group, dexamethasone group (3 mg/kg) and the drug groups. There were 6 in each group. The control group was given normal saline without any treatment. The other groups were sensitized by intraperitoneal injection of OVA 20 μg and aluminum hydroxide 200 μL PBC (2 mg, prepared into emulsion). […] On day 21, 22 and 23, the therapeutic agent (i.e. 3 mg/kg dexamethasone in the positive control group and oral administration in the drug group) was given orally. From day 17 to 23, PBS was given to the control group and placebo group respectively, PBS (without OVA) was given to the control group. On day 0 and day 14, the normal saline was nebulized for 30 minutes to remove the aluminum hydroxide on day 21, 22 and 23 See in Table 2.

[3] = tested on: mouse asthma model induced by OVA; experiment: Asthma induced by ovalbumin in Balb/c mice: IgE level in serum by ELISA; assay type: in vivo; conditions: oral; for content of IgE in mice serum (conclusion in words): model of mouse asthma induced by OVA, samples; for therapeutic effect on bronchial asthma induced by OVA: mouse
[4] = Table 1-1 (1st time), 20 mg/kg, 24 hours after last OVA stimulation

SMILES | FEV2/FVC % (FEV0.2/FVC %, forced expiratory index within 200 ms) ([1]; 20 mg/kg oral) | FEV2/FVC % (FEV0.2/FVC %, forced expiratory index within 200 ms) ([1]; 40 mg/kg oral) | FEV2/FVC % (FEV0.2/FVC %, forced expiratory index within 200 ms) ([1]; 80 mg/kg oral) | effect in COPD rats compared with inhaled budesonide [1] | Acidic cells in bronchoalveolar lavage fluid ([2]; 2 mg/kg) | Neutral cells in bronchoalveolar lavage fluid ([2]; 2 mg/kg) | Total inflammatory cells in bronchoalveolar lavage fluid ([2]; 2 mg/kg) | lymphocyte in bronchoalveolar lavage fluid ([2]; 2 mg/kg) | Acidic cells in bronchoalveolar lavage fluid ([2]; 20 mg/kg) | Total inflammatory cells in bronchoalveolar lavage fluid ([2]; 20 mg/kg) | lymphocyte in bronchoalveolar lavage fluid ([2]; 20 mg/kg) | Neutral cells in bronchoalveolar lavage fluid ([2]; 200 mg/kg) | Total inflammatory cells in bronchoalveolar lavage fluid ([2]; 200 mg/kg) | lymphocyte in bronchoalveolar lavage fluid ([2]; 200 mg/kg) | Concentration of IgE in serum [3, 4] | Concentration of IgE in serum ([3]; Table 1-2 (2nd time), 15 mg/kg) | Concentration of IgE in serum ([3]; Table 1-2 (2nd time), 30 mg/kg) | Concentration of IgE in serum ([3]; Table 1-2 (2nd time), 60 mg/kg) | content of IgE in mice serum (conclusion in words) [3] | therapeutic effect on bronchial asthma induced by OVA [3] | also measured
CC(C)=CCC[C@](C)(O[C@@H]1OC(CO)[C@@H](O)[C@H](O)C1O)C1CC[C@]2(C)C1C(=O)CC1[C@@]3(C)CC[C@H](O)C(C)(C)C3CC[C@]12C (stereo partly drawn) [IB, 3β-hydroxyl-20(S)—O-β-D-glucopyranosyl dammarane-24-ene-12-one] | 65.14 ± 12.78% | 73.59 ± 10.81 % | 82.16 ± 9.01 % | superior to budesonide | 31.19 ± 8.46 | 12.11 ± 7.22 | 46.76 ± 25.18 | 10.07 ± 6.12 | 9.35 ± 4.16 | 25.18 ± 13.12 | 7.53 ± 4.95 | 3.49 ± 2.37 | 12.53 ± 6.23 | 3.75 ± 2.18 | 1337.11 ± 216.28 ng/mL | 2023.33 ± 203.47 ng/mL | 1909.19 ± 121.73 ng/mL | 1769.13 ± 164.34 ng/mL |  |  | Acidic cells in bronchoalveolar lavage fluid ([2]; 200 mg/kg): 5.14 ± 3.08
COC(=O)C1O[C@@H](O[C@@](C)(CCC=C(C)C)C2CC[C@]3(C)C2C(=O)CC2[C@@]4(C)CC[C@H](OC(C)=O)C(C)(C)C4CC[C@]23C)C(O)[C@@H](O)[C@@H]1O (stereo partly drawn) [IA-1, 3-β-O-acetyl-20(S)—O-β-D-glucopyranuronic acid methyl ester dammarane-24-ene-12-one] |  |  |  |  | 26.55 ± 13.23 | 10.21 ± 6.07 | 43.42 ± 26.14 | 13.22 ± 8.27 | 13.26 ± 3.92 | 28.11 ± 14.91 | 4.76 ± 3.18 | 3.75 ± 2.46 | 11.48 ± 4.39 | 3.82 ± 2.66 |  |  |  |  |  |  | Neutral cells in bronchoalveolar lavage fluid ([2]; 20 mg/kg): 3.95 ± 2.41; Acidic cells in bronchoalveolar lavage fluid ([2]; 200 mg/kg): 5.22 ± 3.31
CCCC1O[C@@H]2C[C@H]3[C@@H]4CCC5=CC(=O)C=C[C@]5(C)[C@H]4[C@@H](O)C[C@]3(C)[C@]2(C(=O)CO)O1 (stereo partly drawn) [Budesonide, reference compound] |  |  |  |  |  |  |  |  |  |  |  |  |  |  |  |  |  |  |  |  | FEV2/FVC % (FEV0.2/FVC %, forced expiratory index within 200 ms) ([1]; nebulized 0.25 mg/mL, 4 mL, 30 minutes): 79.47 ± 12.39 %
CC(C)=CCC[C@](C)(O[C@@H]1OC[C@@H](O)[C@H](O)C1O)C1CC[C@]2(C)C1[C@H](O)CC1[C@@]3(C)CC[C@H](O)C(C)(C)C3CC[C@]12C (stereo partly drawn) [IJ, 20-O-β-D-xylopyranosyl-20(S)-panaxadiol glycoside] | 65.78 ± 12.35% | 77.57 ± 9.69 % | 84.36 ± 7.10 % | superior to budesonide |  |  |  |  |  |  |  |  |  |  | 1250.07 ± 144.38 ng/mL | 2068.41 ± 153.29 ng/mL | 1824.85 ± 155.74 ng/mL | 1622.18 ± 130.38 ng/mL |  |  | 
CC(=O)O[C@H]1CC[C@@]2(C)C(CC[C@]3(C)C2CC(=O)C2C([C@](C)(CCC=C(C)C)O[C@@H]4OC(CO)[C@@H](O)[C@H](O)C4O)CC[C@]23C)C1(C)C (stereo partly drawn) [IA, 3-O-acetyl-20(S)—O-β-D-glucopyranosyl Dammarane-24-ene-12-one] |  |  |  |  | 29.23 ± 10.29 | 10.40 ± 6.48 | 40.75 ± 26.14 | 11.81 ± 5.97 | 11.46 ± 4.12 | 26.93 ± 15.01 | 8.84 ± 5.63 | 2.08 ± 2.01 | 10.85 ± 4.62 | 4.27 ± 3.16 |  |  |  |  |  |  | Neutral cells in bronchoalveolar lavage fluid ([2]; 20 mg/kg): 6.38 ± 3.45
CC(C)=CCC[C@](C)(O[C@@H]1OC[C@H](O)[C@H](O)C1O)C1CC[C@]2(C)C1[C@H](O)CC1[C@@]3(C)CC[C@H](O)C(C)(C)C3CC[C@]12C (stereo partly drawn) [IL, 20-O-α-L-arabinopyrauosyl-20(S)-panaxadiol glycoside] | 71.15 ± 10.34 % | 80.25 ± 8.79 % | 89.62 ± 5.14 % | superior to budesonide |  |  |  |  |  |  |  |  |  |  | 996.36 ± 102.45 ng/mL | 1548.67 ± 190.16 ng/mL | 1311.37 ± 154.37 ng/mL | 1080.12 ± 131.23 ng/mL | significantly reduce | obvious therapeutic effect | 
CC(C)=CCC[C@](C)(O[C@@H]1OC(C)[C@H](O)[C@H](O)C1O)C1CC[C@]2(C)C1[C@H](O)CC1[C@@]3(C)CC[C@H](O)C(C)(C)C3CC[C@]12C (stereo partly drawn) [IK] | 67.67 ± 11.39% | 78.59 ± 6.12 % | 85.56 ± 10.07 % | superior to budesonide |  |  |  |  |  |  |  |  |  |  | 1020.78 ± 136.94 ng/mL | 1720.54 ± 165.49 ng/mL | 1406.28 ± 171.05 ng/mL | 1217.43 ± 162.75 ng/mL | significantly reduce | obvious therapeutic effect | 
CC(C)=CCC[C@](C)(O[C@@H]1OC(CO)[C@@H](O)[C@H](O)C1O)C1CC[C@]2(C)C1C(=O)CC1[C@@]3(C)CC=CC(C)(C)C3CC[C@]12C (stereo partly drawn) [IH, 20(S)—O-β-D-glucopyranosyl dammarane-3, 24-diene-12-one] | 63.27 ± 14.65% | 73.59 ± 12.14 % | 85.51 ± 15.27 % | superior to budesonide |  |  |  |  |  |  |  |  |  |  | 1191.08 ± 107.59 ng/mL | 1682.40 ± 182.76 ng/mL | 1311.37 ± 165.93 ng/mL | 1150.59 ± 129.55 ng/mL | significantly reduce | obvious therapeutic effect | 
